The results in this text go back to PubChem BioAssay AID248 (DTP/NCI, 2004).

“And” between values parts separate entries of the source, which are not always exact repeats. Equal entries are not always repeated. Toxic doses and inconclusive results are not listed.

In this assay the test system is L1210 leukemia ip in BDF1 mice, survival T/C. Put plainly: NCI In Vivo Anticancer Drug Screen. Data for tumor model L1210 Leukemia (intraperitoneal) in B6D2F1 (BDF1) mice. Conditions: endpoint: mean survival time, higher = longer survival. The method, boiled down:
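Transplantable tumor model; survival measured in treated vs vehicle control mice. Value = treated/control.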

Where [1] appears, read: dose: 60.0 mg/kg/injection, schedule: Q01DX Z (ip), vehicle: methylcellulose (MC).
Where [2] appears, read: dose: 100.0 mg/kg/injection, schedule: Q04DX003 (ip), vehicle: saline.
[3] abbreviates: dose: 200.0 mg/kg/injection, schedule: Q04DX003 (ip), vehicle: saline.
Setting [4] is: dose: 400.0 mg/kg/injection, schedule: Q04DX003 (ip), vehicle: saline.
The mark [5] stands for this setting: dose: 100.0 mg/kg/injection, schedule: Q01DX001 (ip), vehicle: carboxymethylcellulose (CMC).
The mark [6] stands for this setting: dose: 200.0 mg/kg/injection, schedule: Q01DX001 (ip), vehicle: carboxymethylcellulose (CMC).
Where [7] appears, read: dose: 400.0 mg/kg/injection, schedule: Q01DX001 (ip), vehicle: carboxymethylcellulose (CMC).
Where [8] appears, read: dose: 100.0 mg/kg/injection, schedule: Q01DX001 (ip), vehicle: saline.
[9] abbreviates: dose: 200.0 mg/kg/injection, schedule: Q01DX001 (ip), vehicle: saline.
[10] abbreviates: dose: 400.0 mg/kg/injection, schedule: Q01DX001 (ip), vehicle: saline.
Setting [11] is: dose: 100.0 mg/kg/injection, schedule: Q01DX001 (ip), vehicle: Klucel (hydroxypropylcellulose) (HPC).
Setting [12] is: dose: 200.0 mg/kg/injection, schedule: Q01DX001 (ip), vehicle: Klucel (hydroxypropylcellulose) (HPC).
Setting [13] is: dose: 100.0 mg/kg/injection, schedule: Q01DX009 (ip), vehicle: saline.
Setting [14] is: dose: 100.0 mg/kg/injection, schedule: Q01DX009 (ip), vehicle: Klucel (hydroxypropylcellulose) (HPC).
Where [15] appears, read: dose: 200.0 mg/kg/injection, schedule: Q01DX009 (ip), vehicle: Klucel (hydroxypropylcellulose) (HPC).

For `N=C(N)c1ccc(OCCCOc2ccc(C(=N)N)cc2Br)c(Br)c1`, the T/C reads like this: (dose: 6.25 mg/kg/injection, schedule: Q01DX009 (ip), vehicle: saline) 100 % of control; (dose: 6.25 mg/kg/injection, schedule: Q04DX003 (ip), vehicle: saline) 99 % of control; (dose: 12.5 mg/kg/injection, schedule: Q01DX009 (ip), vehicle: saline) 115 % of control; (dose: 12.5 mg/kg/injection, schedule: Q04DX003 (ip), vehicle: saline) 99 % of control; (dose: 16.5 mg/kg/injection, schedule: Q01DX009 (ip), vehicle: saline) 123 % of control; (dose: 18.0 mg/kg/injection, schedule: Q01DX Z (ip), vehicle: methylcellulose (MC)) 110 % of control. The T/C is, setting by setting: (dose: 25.0 mg/kg/injection, schedule: Q04DX003 (ip), vehicle: saline) 92 % of control; (dose: 27.0 mg/kg/injection, schedule: Q01DX Z (ip), vehicle: methylcellulose (MC)) 113 % of control; (dose: 37.5 mg/kg/injection, schedule: Q01DX009 (ip), vehicle: saline) 107 % of control; (dose: 40.0 mg/kg/injection, schedule: Q01DX Z (ip), vehicle: methylcellulose (MC)) 103 % of control; under setting [1], 113 % of control.

Consider `CO[CH2][Pb]([c]1ccccc1)([c]1ccccc1)[c]1ccccc1`, for which the T/C by setting is: (dose: 100.0 mg/kg/injection, schedule: Q04DX002 (ip), vehicle: saline with Tween-80) 98 % of control; (dose: 200.0 mg/kg/injection, schedule: Q04DX002 (ip), vehicle: saline with Tween-80) 94 % of control; (dose: 400.0 mg/kg/injection, schedule: Q04DX002 (ip), vehicle: saline with Tween-80) 94 % of control.

As for `CC(C)(C)NC/C(=C\c1ccccc1)S(=O)(=O)c1ccccc1[N+](=O)[O-]`, the T/C was 91 % of control (dose: 50.0 mg/kg/injection, schedule: Q01DX001 (ip), vehicle: saline with Tween-80); 93 % of control (dose: 100.0 mg/kg/injection, schedule: Q01DX001 (ip), vehicle: saline with Tween-80); 95 % of control (dose: 200.0 mg/kg/injection, schedule: Q01DX001 (ip), vehicle: saline with Tween-80).

`CCC1(CC)NC(=O)N(CCOS(C)(=O)=O)C1=O`: the T/C runs as follows: (dose: 50.0 mg/kg/injection, schedule: Q04DX003 (ip), vehicle: saline) 95 % of control; under setting [2], 115 % of control; under setting [3], 101 % of control; under setting [4], 100 % of control.

For the compound `NC(=O)N/N=C/Cc1ccc2c(c1)OCO2`, the T/C is 97 % of control under setting [5], 87 % of control under setting [6] and 92 % of control under setting [7].

In the case of `Cc1ccc(/C(=N\N=C(N)N)C2CC2)cc1C`, the T/C was 103 % of control (dose: 15.0 mg/kg/injection, schedule: Q01DX Z (ip), vehicle: methylcellulose (MC)); 97 % of control (dose: 30.0 mg/kg/injection, schedule: Q01DX Z (ip), vehicle: methylcellulose (MC)); 95 % of control (dose: 30.0 mg/kg/injection, schedule: Q01DX Z (oral), vehicle: methylcellulose (MC)); 93 % of control under setting [1]; 88 % of control (dose: 60.0 mg/kg/injection, schedule: Q01DX Z (oral), vehicle: methylcellulose (MC)).

In the case of `N#CC(C(=O)c1ccccc1)=C([SH2+])[SH2+].N#CC(C(=O)c1ccccc1)=C([SH2+])[SH2+].[Cu+2].c1ccc([AsH](c2ccccc2)(c2ccccc2)c2ccccc2)cc1`, the T/C is 103 % of control under setting [8]; 100 % of control under setting [2]; 105 % of control under setting [9]; 96 % of control under setting [3]; 98 % of control under setting [10]; 98 % of control under setting [4].

As to `BrC1(Br)C2C3C=CC4C(C=C3)C4C21` (stereo not given), the T/C is, setting by setting: (dose: 50.0 mg/kg/injection, schedule: Q01DX001 (ip), vehicle: Klucel (hydroxypropylcellulose) (HPC)) 105 % of control; under setting [11], 103 % of control; under setting [12], 108 % of control.

For the compound `C1=CC2CCC(C1)C21OCCO1` (stereo not given), the T/C is 92 % of control under setting [13]; 108 % of control (dose: 100.0 mg/kg/injection, schedule: Q04DX003 (ip), vehicle: alcohol); 96 % of control (dose: 200.0 mg/kg/injection, schedule: Q01DX009 (ip), vehicle: saline); 108 % of control (dose: 200.0 mg/kg/injection, schedule: Q04DX003 (ip), vehicle: alcohol); 94 % of control (dose: 400.0 mg/kg/injection, schedule: Q01DX009 (ip), vehicle: saline); 97 % of control (dose: 400.0 mg/kg/injection, schedule: Q04DX003 (ip), vehicle: alcohol).

Regarding `CCOC(=N)CC(=O)OCC`, the T/C was 101 % of control and 110 % of control (dose: 50.0 mg/kg/injection, schedule: Q01DX001 (ip), vehicle: saline); 101 % of control (dose: 89.0 mg/kg/injection, schedule: Q01DX001 (ip), vehicle: saline); 104 % of control and 113 % of control under setting [8]; 101 % of control (dose: 133.0 mg/kg/injection, schedule: Q01DX001 (ip), vehicle: saline); 95 % of control and 104 % of control and 231 % of control under setting [9]; 98 % of control (dose: 300.0 mg/kg/injection, schedule: Q01DX001 (ip), vehicle: saline). Besides, the T/C under setting [10] was 95 % of control and 101 % of control.

For `Cc1cccc(N2C(=O)CSC2=S)c1`, the T/C is, setting by setting: (dose: 25.0 mg/kg/injection, schedule: Q01DX009 (ip), vehicle: saline with Tween-80) 90 % of control; (dose: 100.0 mg/kg/injection, schedule: Q01DX009 (ip), vehicle: saline with Tween-80) 92 % of control.

Turning to `Cc1ccc(Cl)c(NC(=O)c2ccc(C(=O)Nc3cc(C)ccc3Cl)cc2)c1`, the T/C is 87 % of control under setting [14]; 88 % of control under setting [15]; 91 % of control (dose: 400.0 mg/kg/injection, schedule: Q01DX009 (ip), vehicle: Klucel (hydroxypropylcellulose) (HPC)).

Turning to `Cc1cc(C(=O)O)c(C)n1-c1cccc(C(=O)O)c1`, the T/C (dose: 50.0 mg/kg/injection, schedule: Q01DX009 (ip), vehicle: Klucel (hydroxypropylcellulose) (HPC)) was 102 % of control; the T/C under setting [11] was 94 % of control; the T/C under setting [14] is 102 % of control; the T/C under setting [12] is 102 % of control; the T/C under setting [15] was 89 % of control; the T/C (dose: 400.0 mg/kg/injection, schedule: Q01DX001 (ip), vehicle: Klucel (hydroxypropylcellulose) (HPC)) was 91 % of control.

With `N#CC(Nc1c(N)nc(N)nc1N)c1ccc(N(CCCl)CCCl)cc1` (stereo not given), the T/C (dose: 50.0 mg/kg/injection, schedule: Q01DX001 (ip), vehicle: carboxymethylcellulose (CMC)) is 105 % of control; the T/C under setting [5] was 103 % of control; the T/C under setting [6] is 103 % of control; the T/C under setting [7] was 100 % of control.

As to `O=C1NC(=O)C(F)(F)C(O)N1` (stereo not given), the T/C (dose: 45.0 mg/kg/injection, schedule: Q01DX009 (ip), vehicle: saline) was 117 % of control; the T/C (dose: 65.0 mg/kg/injection, schedule: Q01DX009 (ip), vehicle: saline) is 94 % of control; the T/C under setting [13] is 92 % of control; the T/C under setting [2] was 108 % of control; the T/C (dose: 150.0 mg/kg/injection, schedule: Q01DX009 (ip), vehicle: saline) is 97 % of control; the T/C under setting [3] is 117 % of control. Moreover, the T/C reads like this: (dose: 220.0 mg/kg/injection, schedule: Q01DX009 (ip), vehicle: saline) 90 % of control; under setting [4], 120 % of control.

Regarding `OC(c1ccccc1)(c1ccccc1)c1ccncc1`, the T/C (dose: 50.0 mg/kg/injection, schedule: Q01DX009 (ip), vehicle: saline with Tween-80) was 96 % of control.
